Measured values from ChEMBL document CHEMBL1201862, “PubChem BioAssay data set” (2004).
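Cells were grown in 96-well plates and exposed to each compound for 48 hours at five concentrations; endpoints were interpolated linearly between bracketing concentrations, or set to the highest concentration if not reached. GI50 marks 50% less growth.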 Activity calls are given as the source filed them. Rule as the data show it: active = GI50 up to about 1.1 µM and inactive = higher.

Tests used:
Assay in all cases: growth of human tumour cells (NCI), 48 h
IGROV-1 = tested on: IGROV-1
A498 = tested on: A498
OVCAR-5 = tested on: OVCAR-5
KM12 = tested on: KM12
MDA-MB-435 = tested on: MDA-MB-435
HOP-62 = tested on: HOP-62
RPMI-8226 = tested on: RPMI-8226
OVCAR-8 = tested on: OVCAR-8
Malme-3M = tested on: Malme-3M
NCI-H522 = tested on: NCI-H522
SF-268 = tested on: SF-268
ACHN = tested on: ACHN
SN12C = tested on: SN12C
SK-MEL-2 = tested on: SK-MEL-2
SR = tested on: SR
A549 = tested on: A549
SK-OV-3 = tested on: SK-OV-3
HL-60 = tested on: HL-60
T47D = tested on: T47D
OVCAR-3 = tested on: OVCAR-3

| Structure (SMILES) | GI50 (IGROV-1) | GI50 (A498) | GI50 (OVCAR-5) | GI50 (KM12) | GI50 (MDA-MB-435) | GI50 (HOP-62) | GI50 (RPMI-8226) | GI50 (OVCAR-8) | GI50 (Malme-3M) | GI50 (NCI-H522) | GI50 (SF-268) | GI50 (ACHN) | GI50 (SN12C) | GI50 (SK-MEL-2) | GI50 (SR) | GI50 (A549) | GI50 (SK-OV-3) | GI50 (HL-60) | GI50 (T47D) | GI50 (OVCAR-3) |
| --- | --- | --- | --- | --- | --- | --- | --- | --- | --- | --- | --- | --- | --- | --- | --- | --- | --- | --- | --- | --- |
| [N-]=[N+]=CC(=O)CCC(N)C(=O)O (stereo not given) | 1.92 µM (inactive) | 24.8 µM (inactive) | 4.86 µM (inactive) | 0.541 µM (active) | 1.75 µM (inactive) | 1.31 µM (inactive) | 3.54 µM (inactive) | 2.02 µM (inactive) | 6.38 µM (inactive) | 3.01 µM (inactive) | 1.25 µM (inactive) | 1.06 µM (active) | 2.77 µM (inactive) | 53.7 µM (inactive) | 0.809 µM (active) | 1.01 µM (active) | 1.35 µM (inactive) | 1.72 µM (inactive) | 18.7 µM (inactive) | – |
| CN(C)c1ccc(C2CC(c3ccc4ccccc4c3O)=NN2)cc1 (stereo not given) | 24.9 µM (inactive) | 22.4 µM (inactive) | 80.7 µM (inactive) | 39.5 µM (inactive) | 30.4 µM (inactive) | 31 µM (inactive) | 29.6 µM (inactive) | 32.4 µM (inactive) | 51.1 µM (inactive) | 22.2 µM (inactive) | 32.5 µM (inactive) | 38.4 µM (inactive) | 33.2 µM (inactive) | 35.7 µM (inactive) | 14.1 µM (inactive) | 31 µM (inactive) | 48.5 µM (inactive) | – | 38.8 µM (inactive) | 18 µM (inactive) |
| COC(=O)[C@H]1[C@H](OC(=O)[C@@H](OC)c2ccccc2)ON2CC[C@@H](OC(=O)c3ccccc3)[C@H]12 | 49.9 µM (inactive) | 9.38 µM (inactive) | > 100 µM (inactive) | > 100 µM (inactive) | > 100 µM (inactive) | 35.1 µM (inactive) | > 100 µM (inactive) | 61.4 µM (inactive) | > 100 µM (inactive) | 2.65 µM (inactive) | 54.3 µM (inactive) | 10.3 µM (inactive) | 78 µM (inactive) | 48.1 µM (inactive) | > 100 µM (inactive) | > 100 µM (inactive) | > 100 µM (inactive) | > 100 µM (inactive) | 91.2 µM (inactive) | – |
| CNc1ccc(C(=O)CC(O)CCC(C)C2OC(=O)CC(O)CC(=O)CC(O)CC(O)CC(O)CC(O)CC3(O)CC(O)C(C(=O)NCCN(C)C)C(CC(OC4OC(C)C(O)C(NC(=O)CN5CCN(C)CC5)C4O)\C=C/C=C\C=C/C=C/C=C/C=C\C=C/C2C)O3)cc1 (stereo not given) | 7.67 µM (inactive) | 2.56 µM (inactive) | 57.4 µM (inactive) | 2.08 µM (inactive) | 14.9 µM (inactive) | 25.6 µM (inactive) | – | 13.9 µM (inactive) | 2.28 µM (inactive) | 2.65 µM (inactive) | 6.64 µM (inactive) | 2.84 µM (inactive) | 3.21 µM (inactive) | 6.22 µM (inactive) | 2.48 µM (inactive) | 2.88 µM (inactive) | > 100 µM (inactive) | 7.29 µM (inactive) | 51.4 µM (inactive) | – |
